Read-outs that look alike come from different tables or passages of the source.
Legend:
PIP5K2A = target: T1, PIP5K2A (Homo sapiens, UniProt P48426); assay: Lipid kinase screening (ADP-Glo), PIP5K2A; format: biochemical
T1 sequence (P48426 1-406): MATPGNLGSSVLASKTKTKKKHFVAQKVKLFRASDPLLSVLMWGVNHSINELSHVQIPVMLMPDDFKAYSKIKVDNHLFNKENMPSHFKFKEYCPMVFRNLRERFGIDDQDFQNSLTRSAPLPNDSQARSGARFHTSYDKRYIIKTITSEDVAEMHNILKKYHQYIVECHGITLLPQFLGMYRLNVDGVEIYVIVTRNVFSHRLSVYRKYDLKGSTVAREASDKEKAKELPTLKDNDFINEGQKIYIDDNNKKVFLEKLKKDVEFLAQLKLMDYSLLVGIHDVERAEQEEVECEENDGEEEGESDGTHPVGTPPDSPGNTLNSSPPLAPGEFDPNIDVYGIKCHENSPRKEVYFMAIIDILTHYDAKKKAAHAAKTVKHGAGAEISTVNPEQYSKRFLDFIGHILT
Protocol: (§1) The lipid kinase screening for ICL-CCIC-0019, CK14, CK145 (5), CK146 (4) and CK147 (8) (testing concentration for all compounds: 10 μM) was performed by MRC PPU International Centre for Kinase Profiling (Dundee, UK). The lipid kinase screening panel includes 15 human recombinant lipid kinases and the tests used Promega ADP Glo^TM High Throughput Assay kit (Promega, Southampton, UK). For each assay, reference compounds were used as quality control. Finally, mean percentage activity inhibited by compounds and standard deviation for all the repeats were calculated.

CHK a (CHKA) = CHK a (CHKA) (Homo sapiens, UniProt P35790); assay: Lipid kinase screening (ADP-Glo), CHKA; format: biochemical
CHK a (CHKA), sequence (P35790 whole entry): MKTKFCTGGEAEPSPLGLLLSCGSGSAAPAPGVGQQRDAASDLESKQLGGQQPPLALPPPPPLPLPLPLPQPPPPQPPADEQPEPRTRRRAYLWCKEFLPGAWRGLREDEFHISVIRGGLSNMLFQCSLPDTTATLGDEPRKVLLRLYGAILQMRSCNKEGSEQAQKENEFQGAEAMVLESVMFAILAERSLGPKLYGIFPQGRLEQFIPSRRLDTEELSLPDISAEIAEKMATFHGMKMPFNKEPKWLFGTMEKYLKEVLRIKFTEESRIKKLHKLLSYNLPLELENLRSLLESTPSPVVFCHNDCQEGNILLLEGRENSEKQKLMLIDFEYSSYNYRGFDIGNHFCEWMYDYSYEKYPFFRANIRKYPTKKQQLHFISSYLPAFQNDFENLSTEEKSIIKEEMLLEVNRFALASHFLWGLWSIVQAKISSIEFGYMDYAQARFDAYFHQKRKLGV
Protocol: as §1

PI3K b = PI3K b (Homo sapiens, UniProt P42338); assay: Lipid kinase screening (ADP-Glo), PI3K b; format: biochemical
Protocol: as §1

PI3K a = PI3K a (Homo sapiens, UniProt P42336); assay: Lipid kinase screening (ADP-Glo), PI3K a; format: biochemical
Protocol: as §1

CHK b (CHKB) = CHK b (CHKB) (Homo sapiens, UniProt Q9Y259); assay: Lipid kinase screening (ADP-Glo), CHKB; format: biochemical
Protocol: as §1

[1] = Matrix stability assay in fasted state simulated gastric fluid (FaSSGF); format: in vitro ADME; details: for half-life: pH 1.6
Protocol: (§2) The ADME study for ICL-CCIC-0019, CK14, CK145 (5), CK146 (4) and CK147 (8) was performed by Charles River Drug Discovery Services (Essex, UK).
(§3) The predicted in vitro pharmacokinetic characteristics of compounds were evaluated by four ADME assays, namely kinetic solubility assay, metabolic stability assay using human liver microsome S9, permeability and efflux study using the Caco-2 cell line, and matrix stability assay using fasted state simulated gastric fluid (FaSSGF). All tested CHKA inhibitors were highly soluble (>150 μM) in 0.1 M PBS (2% DMSO) (Table 1). […] The in vivo clearance was calculated to predict the actual clearance in humans by scaling the clearance values, which takes into account liver weight, microsomes per liver and liver blood flow. […] In Caco-2 cell permeability assay, drug permeability was investigated and presented as apparent permeability coefficients (Papp) in A to B (A-B, apical to basolateral direction) and B to A (B-A, basolateral to apical direction).

SPHK2 = target: T2, SPHK2 (Homo sapiens, UniProt Q9NRA0); assay: Lipid kinase screening (ADP-Glo), SPHK2; format: biochemical
T2 sequence (Q9NRA0 1-654): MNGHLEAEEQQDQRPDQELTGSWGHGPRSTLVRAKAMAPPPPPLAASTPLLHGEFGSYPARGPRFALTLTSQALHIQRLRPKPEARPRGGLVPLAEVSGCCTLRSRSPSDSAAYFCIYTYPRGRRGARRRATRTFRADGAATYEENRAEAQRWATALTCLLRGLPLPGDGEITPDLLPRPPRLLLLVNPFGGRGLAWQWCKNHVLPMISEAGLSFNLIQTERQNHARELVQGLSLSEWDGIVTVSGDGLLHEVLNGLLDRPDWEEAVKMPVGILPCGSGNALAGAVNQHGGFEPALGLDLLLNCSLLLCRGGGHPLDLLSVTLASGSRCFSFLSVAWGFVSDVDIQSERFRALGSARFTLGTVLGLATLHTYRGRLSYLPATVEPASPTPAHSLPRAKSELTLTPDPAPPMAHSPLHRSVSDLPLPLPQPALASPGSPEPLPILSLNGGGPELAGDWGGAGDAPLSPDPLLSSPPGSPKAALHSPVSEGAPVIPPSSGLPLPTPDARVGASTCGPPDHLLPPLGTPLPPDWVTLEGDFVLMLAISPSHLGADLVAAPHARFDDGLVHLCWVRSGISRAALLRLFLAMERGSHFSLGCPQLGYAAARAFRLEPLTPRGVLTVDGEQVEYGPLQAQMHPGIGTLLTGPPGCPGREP
Protocol: as §1

DGK z = DGK z (Homo sapiens, UniProt Q13574); assay: Lipid kinase screening (ADP-Glo), DGK z; format: biochemical
DGK z, sequence (Q13574 whole entry): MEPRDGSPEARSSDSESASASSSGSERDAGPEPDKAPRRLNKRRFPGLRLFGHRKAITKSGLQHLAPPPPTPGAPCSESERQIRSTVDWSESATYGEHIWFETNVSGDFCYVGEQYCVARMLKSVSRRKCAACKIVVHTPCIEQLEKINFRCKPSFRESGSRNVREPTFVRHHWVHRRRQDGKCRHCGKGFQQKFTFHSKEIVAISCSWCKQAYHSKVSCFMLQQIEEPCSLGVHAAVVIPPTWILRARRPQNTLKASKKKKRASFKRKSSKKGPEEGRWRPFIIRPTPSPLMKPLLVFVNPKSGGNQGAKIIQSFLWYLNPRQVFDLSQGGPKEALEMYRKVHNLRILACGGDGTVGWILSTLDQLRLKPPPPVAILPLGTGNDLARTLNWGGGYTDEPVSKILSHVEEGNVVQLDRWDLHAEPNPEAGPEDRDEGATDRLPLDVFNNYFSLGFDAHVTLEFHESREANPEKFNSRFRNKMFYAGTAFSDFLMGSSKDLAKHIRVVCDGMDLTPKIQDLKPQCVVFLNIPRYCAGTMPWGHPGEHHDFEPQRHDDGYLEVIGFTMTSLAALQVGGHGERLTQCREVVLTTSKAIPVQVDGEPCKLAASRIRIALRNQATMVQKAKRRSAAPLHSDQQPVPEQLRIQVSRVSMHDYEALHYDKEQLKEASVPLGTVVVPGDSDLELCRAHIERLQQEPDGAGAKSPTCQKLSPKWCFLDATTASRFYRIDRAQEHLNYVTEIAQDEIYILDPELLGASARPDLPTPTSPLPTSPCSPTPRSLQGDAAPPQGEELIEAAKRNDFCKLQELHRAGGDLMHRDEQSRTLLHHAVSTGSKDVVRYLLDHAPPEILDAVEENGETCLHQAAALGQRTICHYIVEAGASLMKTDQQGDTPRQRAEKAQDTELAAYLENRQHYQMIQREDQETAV
Protocol: as §1

DGK b = DGK b (Homo sapiens, UniProt Q9Y6T7); assay: Lipid kinase screening (ADP-Glo), DGK b; format: biochemical
Protocol: as §1

[2] = Human microsomal metabolic stability assay; format: in vitro ADME
Protocol: as §2, §3

PI4K2a = PI4K2a (Homo sapiens, UniProt Q9BTU6); assay: Lipid kinase screening (ADP-Glo), PI4K2a; format: biochemical
Protocol: as §1

PI3Ka E545K + p85 = PI3Ka E545K + p85 (Homo sapiens, UniProt P42336, E545K); assay: Lipid kinase screening (ADP-Glo), PI3Ka E545K + p85; format: biochemical
PI3Ka E545K + p85, sequence (P42336 whole entry E545K): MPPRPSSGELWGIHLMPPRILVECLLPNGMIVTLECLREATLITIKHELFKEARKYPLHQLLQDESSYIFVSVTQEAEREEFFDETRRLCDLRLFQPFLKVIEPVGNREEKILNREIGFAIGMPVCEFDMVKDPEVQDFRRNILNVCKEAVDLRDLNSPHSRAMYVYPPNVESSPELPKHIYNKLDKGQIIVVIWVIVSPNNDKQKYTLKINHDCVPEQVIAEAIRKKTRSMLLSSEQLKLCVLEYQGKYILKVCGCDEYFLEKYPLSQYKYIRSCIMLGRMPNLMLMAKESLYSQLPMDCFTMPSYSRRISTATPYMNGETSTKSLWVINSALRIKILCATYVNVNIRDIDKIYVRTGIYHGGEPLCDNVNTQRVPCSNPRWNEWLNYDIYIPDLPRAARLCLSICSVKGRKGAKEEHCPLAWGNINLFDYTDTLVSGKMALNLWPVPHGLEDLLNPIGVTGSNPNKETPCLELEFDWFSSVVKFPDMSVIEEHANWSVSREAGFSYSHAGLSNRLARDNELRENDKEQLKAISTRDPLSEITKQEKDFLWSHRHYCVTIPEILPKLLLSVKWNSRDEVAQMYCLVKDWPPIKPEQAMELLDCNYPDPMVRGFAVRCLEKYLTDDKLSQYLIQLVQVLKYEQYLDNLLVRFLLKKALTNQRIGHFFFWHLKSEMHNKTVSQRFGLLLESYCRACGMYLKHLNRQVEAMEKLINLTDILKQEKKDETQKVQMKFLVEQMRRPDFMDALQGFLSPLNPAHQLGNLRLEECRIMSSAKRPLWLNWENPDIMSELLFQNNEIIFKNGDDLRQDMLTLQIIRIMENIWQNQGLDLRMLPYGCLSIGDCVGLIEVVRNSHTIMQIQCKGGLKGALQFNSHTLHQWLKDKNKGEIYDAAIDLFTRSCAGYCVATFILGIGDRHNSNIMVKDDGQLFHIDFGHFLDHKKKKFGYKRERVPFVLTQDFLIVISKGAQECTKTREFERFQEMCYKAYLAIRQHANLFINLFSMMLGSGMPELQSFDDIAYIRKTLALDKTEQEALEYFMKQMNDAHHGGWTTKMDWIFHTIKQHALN
PI3Ka E545K + p85, sequence (P27986 whole entry partner): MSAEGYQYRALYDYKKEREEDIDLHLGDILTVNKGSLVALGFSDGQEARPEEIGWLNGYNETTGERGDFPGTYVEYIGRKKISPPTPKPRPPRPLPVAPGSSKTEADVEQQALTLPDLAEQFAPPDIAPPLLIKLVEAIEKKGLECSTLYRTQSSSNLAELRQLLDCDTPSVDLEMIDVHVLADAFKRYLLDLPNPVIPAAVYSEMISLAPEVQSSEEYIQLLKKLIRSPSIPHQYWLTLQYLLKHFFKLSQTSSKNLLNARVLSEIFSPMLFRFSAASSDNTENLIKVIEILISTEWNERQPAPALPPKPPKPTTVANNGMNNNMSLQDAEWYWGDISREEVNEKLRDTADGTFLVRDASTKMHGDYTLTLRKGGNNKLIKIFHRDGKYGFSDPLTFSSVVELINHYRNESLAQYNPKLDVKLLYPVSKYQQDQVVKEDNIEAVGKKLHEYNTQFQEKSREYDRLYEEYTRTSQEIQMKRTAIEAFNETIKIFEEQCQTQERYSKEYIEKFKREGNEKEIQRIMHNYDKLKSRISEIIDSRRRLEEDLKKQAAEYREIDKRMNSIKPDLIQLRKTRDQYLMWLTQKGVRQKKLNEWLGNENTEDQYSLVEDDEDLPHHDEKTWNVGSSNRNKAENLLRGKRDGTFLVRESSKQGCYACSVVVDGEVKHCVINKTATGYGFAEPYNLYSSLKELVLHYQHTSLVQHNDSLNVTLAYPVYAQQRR
Protocol: as §1

DGK g = DGK g (Homo sapiens, UniProt P49619); assay: Lipid kinase screening (ADP-Glo), DGK g; format: biochemical
Protocol: as §1

[3] = target: phosphatidylinositol 4-kinase beta (PIK4CB) (Homo sapiens, UniProt Q9UBF8); assay: Lipid kinase screening (ADP-Glo), PIK4CB; format: biochemical
phosphatidylinositol 4-kinase beta (PIK4CB), sequence (Q9UBF8 whole entry): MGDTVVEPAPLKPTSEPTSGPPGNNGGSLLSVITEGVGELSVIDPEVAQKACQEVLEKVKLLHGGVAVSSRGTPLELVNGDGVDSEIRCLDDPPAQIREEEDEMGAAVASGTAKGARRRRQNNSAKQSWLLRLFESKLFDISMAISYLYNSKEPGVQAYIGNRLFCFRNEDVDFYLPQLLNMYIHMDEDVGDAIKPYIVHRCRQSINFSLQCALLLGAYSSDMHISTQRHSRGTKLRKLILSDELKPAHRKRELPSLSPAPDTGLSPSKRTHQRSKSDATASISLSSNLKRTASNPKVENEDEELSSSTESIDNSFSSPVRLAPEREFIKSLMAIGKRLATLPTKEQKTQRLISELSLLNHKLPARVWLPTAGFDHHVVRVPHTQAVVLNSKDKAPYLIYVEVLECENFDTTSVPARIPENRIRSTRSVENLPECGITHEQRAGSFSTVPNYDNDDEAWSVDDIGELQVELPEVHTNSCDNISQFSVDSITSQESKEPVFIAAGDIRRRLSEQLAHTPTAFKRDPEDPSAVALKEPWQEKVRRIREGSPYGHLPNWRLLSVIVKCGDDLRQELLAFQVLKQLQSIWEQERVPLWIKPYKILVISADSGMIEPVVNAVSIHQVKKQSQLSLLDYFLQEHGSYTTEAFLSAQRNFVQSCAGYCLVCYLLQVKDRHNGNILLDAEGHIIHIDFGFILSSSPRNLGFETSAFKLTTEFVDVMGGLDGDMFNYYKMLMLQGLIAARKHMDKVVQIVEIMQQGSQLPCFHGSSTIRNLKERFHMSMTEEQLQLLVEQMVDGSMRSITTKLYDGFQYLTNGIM
Protocol: as §1

[4] = Conjugate stability test of CK147 in medium (HPLC); format: physicochemical; details: up to 72 h
Protocol: To assess stability of CK147 in medium, 5 mL of medium containing 10% FCS and 1% L-glutamine was added sterilely to a six-well plate. Next, 1.7 μL of 300 mM CK147 in DMSO or 1.7 μL DMSO was added into wells and the plate was gently shaken for 5 s before being incubated at 37 °C in a humidified atmosphere containing 5% CO2. After 0, 2, 4, 6, 24, 48 and 72 h, 200 μL aliquots of medium from each well were transferred into a 1.5-mL tube containing 198.4 μL acetonitrile and 1.6 μL of 2.5 mg/mL ICL-CCIC-0019 as an internal standard (IS) […]. […] One hundred microliters of the solution were injected into the HPLC system described in Supplementary HPLC method D. Three repeats were performed for each sample.

SPHK1 = SPHK1 (Homo sapiens, UniProt Q9NYA1); assay: Lipid kinase screening (ADP-Glo), SPHK1; format: biochemical
Protocol: as §1

PI3K g = PI3K g (Homo sapiens, UniProt P48736); assay: Lipid kinase screening (ADP-Glo), PI3K g; format: biochemical
PI3K g, sequence (P48736 whole entry): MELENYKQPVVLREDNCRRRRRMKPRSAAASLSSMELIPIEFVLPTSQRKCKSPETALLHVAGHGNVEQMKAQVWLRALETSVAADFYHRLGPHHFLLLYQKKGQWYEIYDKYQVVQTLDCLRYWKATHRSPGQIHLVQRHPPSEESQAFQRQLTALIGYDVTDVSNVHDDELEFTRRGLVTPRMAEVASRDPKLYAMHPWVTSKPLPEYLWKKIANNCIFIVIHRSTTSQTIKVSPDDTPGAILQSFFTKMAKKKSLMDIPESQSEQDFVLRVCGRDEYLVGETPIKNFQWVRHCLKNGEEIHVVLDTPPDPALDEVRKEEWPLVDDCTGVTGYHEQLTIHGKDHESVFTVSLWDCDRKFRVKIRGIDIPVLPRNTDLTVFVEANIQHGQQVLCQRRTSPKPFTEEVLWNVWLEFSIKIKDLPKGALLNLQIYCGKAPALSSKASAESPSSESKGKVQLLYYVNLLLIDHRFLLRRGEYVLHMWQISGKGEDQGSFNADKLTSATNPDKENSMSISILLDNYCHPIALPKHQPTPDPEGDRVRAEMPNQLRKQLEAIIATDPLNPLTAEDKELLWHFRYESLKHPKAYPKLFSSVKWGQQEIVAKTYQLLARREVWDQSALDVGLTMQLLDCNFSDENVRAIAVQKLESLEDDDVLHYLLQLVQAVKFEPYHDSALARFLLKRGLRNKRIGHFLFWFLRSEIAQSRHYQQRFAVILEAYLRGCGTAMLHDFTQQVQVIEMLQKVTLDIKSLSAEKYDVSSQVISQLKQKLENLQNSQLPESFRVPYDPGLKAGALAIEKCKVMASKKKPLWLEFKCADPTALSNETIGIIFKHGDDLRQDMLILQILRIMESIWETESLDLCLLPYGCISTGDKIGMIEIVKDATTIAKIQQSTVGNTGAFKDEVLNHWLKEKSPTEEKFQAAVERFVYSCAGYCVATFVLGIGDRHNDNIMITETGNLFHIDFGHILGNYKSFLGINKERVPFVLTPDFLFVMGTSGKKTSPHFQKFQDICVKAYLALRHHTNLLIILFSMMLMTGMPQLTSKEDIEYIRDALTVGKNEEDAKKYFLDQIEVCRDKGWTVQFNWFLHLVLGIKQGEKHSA
Protocol: as §1

Kinetic solubility assay = format: physicochemical; details: aqueous buffer, kinetic from dmso stock
Protocol: as §2, §3

[5] = Caco-2 permeability and efflux study; format: in vitro ADME, human
Protocol: as §2, §3

Caco-2 cell line = assay: Caco-2 permeability and efflux study; format: in vitro ADME, human; details: Caco-2
Protocol: as §2, §3

[6] = test system: C4-2B prostate cancer cells; assay: Cellular uptake and metabolism study in C4-2B with or without serum (HPLC); details: 50 μM, 4 h
Protocol: Cell lysate sample preparation: C4-2B prostate cancer cells were seeded into cell culture dishes (150 × 25 mm) at a density of 7 × 10^6 per dish. The cells were allowed to settle and grow for another 48 h. The cells were treated with ICL-CCIC-0019, CK146, CK147 and CK148 (50 μM of 7 mL RPMI medium with or without 10% FCS) for 4 h in the incubator. After 4-h incubation, the aliquots of medium were collected (see the medium sample preparation section). Cells were scraped, washed with ice-cold PBS three times and collected by centrifugation (4 °C, 4000× g). The cell pellets were resuspended in 500 μL of chilled acetonitrile:PBS (50:50, v/v) for cell disruption and homogenization. The cell disruption was performed by a Precellys® 24 homogenizer (Bertin Technologies, Montigny-le-Bretonneux, France) at 4 °C. After acetonitrile evaporation at room temperature, 50 μL of cell lysis was taken for protein analysis. Another 100 μL of the supernatant obtained after centrifuge (4 °C, 15,000× g) was resuspended in 100 μL formic acid:water (0.2%, v/v). Next, 100 μL of the filtered solution was analyzed by HPLC system described in Supplementary HPLC method D. Three injections were performed for each sample. Intracellular drug was normalized to cellular protein of each plate using BCA assay. Medium sample preparation for HPLC analysis: 250-μL aliquots of medium (with or without 10% FCS) were transferred into 1.5-mL tube containing 250 μL acetonitrile. After a brief vortex, the tube was placed at 4 °C for 30 min for protein precipitation. One hundred microliters of the resulting supernatant from centrifuge (4 °C, 15,000× g) were resuspended in 100 μL formic acid: water (0.2%, v/v). One hundred microliters of the filtered sample were analyzed by HPLC system described in Supplementary HPLC method D. Three injections were performed for each sample.

HCT-116 = details: cited from earlier work
[7] = test system: [18F]D4-FCH uptake in C4-2B cells; assay: [18F]D4-FCH uptake in vitro study, C4-2B; format: cell-based; details: Homo sapiens
Protocol: HCT-116 and C4-2B cells were seeded at a density of 5 × 10^5 cells per well into 6-well plates and incubated overnight. Cells were treated with 1 or 10 µM CHKA inhibitors (CK14, CK145, CK146 and CK147) for 1 h and pulsed with [^18F]D4-FCH (740 kBq) in presence of inhibitors in 1 mL for an additional hour at 37 °C. Cells were washed with ice-cold PBS three times and lysed in 1 mL RIPA buffer. The radioactivity of 800 µL lysate from each well was counted on a gamma counter (Perkin Elmer, Beaconsfield, UK) and normalized to protein content as determined by BCA assay.

A549 = details: cited from earlier work
PI3Ka E524K + p85 = assay: Lipid kinase screening (ADP-Glo), PI3Ka E524K + p85; format: biochemical, human; details: 10 μM
Protocol: as §1

[8] = test system: Δ49N CHKA2 (recombinant CHKA2); details: read-out: IC50 against recombinant CHKA2; cited from earlier work

## CN(C)c1cc[n+](CCCCCCCCCCCCCC[n+]2ccc(N3CCN(C(=O)CSC4CC(=O)N(CCC(=O)NCCCCCC(=O)NCCCCC(NC(=O)NC(CCC(=O)O)C(=O)O)C(=O)O)C4=O)CC3)cc2)cc1 (centres unmarked) [CK147]
PIP5K2A
  inhibition at 10 µM: -1.5%
CHK a (CHKA)
  inhibition at 10 µM: 13.1%
PI3K b
  inhibition at 10 µM: -0.1%
PI3K a
  inhibition at 10 µM: -2.6%
CHK b (CHKB)
  inhibition at 10 µM: 3.2%
[1]; simulated gi fluid
  Matrix Stability: Remaining %: 97%
  half-life: > 10 h
SPHK2
  inhibition at 10 µM: -3.7%
DGK z
  inhibition at 10 µM: 4.7%
DGK b
  inhibition at 10 µM: -4.9%
[2]
  PCT_LBF % (percentage of compound removed compared to liver blood flow): <45%
  Predicted in vivo clearance: <0.6 L/h/kg
[2]; human
  Human Microsomal Metabolic Stability: Remaining %: 105%
[2]; human, Human Microsomal Metabolic Stability: Clint
  microsomal CLint: < 14 µL/min/mg
[2]; human, liver microsomes, Human Microsomal Metabolic Stability: Half-life
  half-life: > 1.67 h
PI4K2a
  inhibition at 10 µM: 10.4%
PI3Ka E545K + p85
  inhibition at 10 µM: 22.8%
DGK g
  inhibition at 10 µM: -6.5%
[3]
  inhibition at 10 µM: 0.5%
[4]
  chemical decomposition in medium by HPLC/MS (in words): Chemical decomposition was not detected
SPHK1
  inhibition at 10 µM: -1%
PI3K g
  inhibition at 10 µM: 2.1%
Kinetic solubility assay
  solubility kinetic: 186 µM
[5]; Caco-2
  Papp A→B: < 1 nm/s
  Papp B→A: < 1 nm/s
Caco-2 cell line
  Efflux ratio (Papp B-A/Papp A-B): too poor to permit calculation of the efflux ratio

## CN(C)c1cc[n+](CCCCCCCCCCCCCC[n+]2ccc(N3CCN(C(=O)CSC4CC(=O)N(CCC(=O)NCCCCCC(=O)NCCCCC(NC(=O)NC(CCC(=O)OC(C)(C)C)C(=O)OC(C)(C)C)C(=O)OC(C)(C)C)C4=O)CC3)cc2)cc1 (centres unmarked) [CK148]
[6]; FCS positive and negative groups
  cellular uptake, mean ± SD of two experiment groups: 42.5 ± 11.5 % μg^−1 protein
[6]; both FCS groups
  detection in cell lysates by HPLC (in words): detected

## CN(C)c1cc[n+](CCCCCCCCCCCCCC[n+]2ccc(N(C)C)cc2)cc1.[Br-].[Br-] [CK14, reference compound]
PIP5K2A
  inhibition at 10 µM: -2.7%
CHK a (CHKA)
  inhibition at 10 µM: 77%
PI3K b
  inhibition at 10 µM: -36.2%
PI3K a
  inhibition at 10 µM: -1.9%
CHK b (CHKB)
  inhibition at 10 µM: -33.7%
[1]; FaSSGF
  Matrix Stability: Remaining %: 95%
[1]; fasted state simulated gastric fluid (FaSSGF), fasted state simulated gastric fluid, read-out: FaSSGF stability Half-life (converted)
  half-life: > 10 h
SPHK2
  inhibition at 10 µM: 16%
DGK z
  inhibition at 10 µM: 4.7%
DGK b
  inhibition at 10 µM: 11.9%
[2]; human
  PCT_LBF % (percentage of compound removed compared to liver blood flow): <45%
[2]; human liver microsome S9
  Human Microsomal Metabolic Stability: Remaining %: 101%
[2]; human, human liver microsome S9, human liver microsome S9, read-out: Human Microsomal Metabolic Stability: Clint
  microsomal CLint: < 14 µL/min/mg
[2]; human, human liver microsome S9, human liver microsome S9, read-out: Human Microsomal Metabolic Stability: Half-life
  half-life: > 1.67 h
[2]; scaled from microsomal clearance (liver weight, microsomes per liver, liver blood flow), human
  Predicted in vivo clearance: <0.6 L/h/kg
PI4K2a
  inhibition at 10 µM: -48.8%
PI3Ka E545K + p85
  inhibition at 10 µM: -15.2%
HCT-116
  GI50: 0.29 µM
DGK g
  inhibition at 10 µM: 12.8%
[3]
  inhibition at 10 µM: -4.1%
[7]; 1 μM, read-out: inhibition of [18F]D4-FCH uptake (mean of CK14, CK145 and CK146)
  inhibition at 1 µM: 46 ± 1%
[7]; 10 μM
  inhibition at 10 µM: 93 ± 5%
A549
  GI50: 0.33 µM
PI3Ka E524K + p85
  % Inhibition PI3Ka E524K + p85: 1.6%
SPHK1
  inhibition at 10 µM: -10.1%
PI3K g
  inhibition at 10 µM: 16.4%
Kinetic solubility assay; 0.1 M PBS (2% DMSO), read-out: Kinetic Solubility: Solubility
  solubility kinetic: 154 µM
[8]
  IC50: 0.15 µM
[5]; human, Caco-2, read-out: Efflux ratio (Papp B-A/Papp A-B)
  efflux ratio: > 87
[5]; human, Caco-2, apical to basolateral, read-out: Papp A-B
  Papp A→B: < 1 nm/s
[5]; human, Caco-2, basolateral to apical, read-out: Papp B-A
  Papp B→A: 87 nm/s

From PMC8309005, “Novel Non-Congeneric Derivatives of the Choline Kinase Alpha Inhibitor ICL-CCIC-0019” (Pharmaceutics, 2021)
